From US20110098323A1, “INHIBITORS OF BACTERIAL BIOFILM FORMATION” (MICROBIOTIX, INC., priority 2009, published 2011)

Assays:
S. aureus ATCC 35556 [1] = assay: Inhibition of biofilm growth at various stages of biofilm development (time of addition); assay type: cell-based, Staphylococcus aureus; conditions: 22 hours total incubation, CV staining
Procedure: Compound 4 was added to bacterial cultures at a concentration of 4XMBIC (12 μM) at various times (0, 1, 2, 4, 6, 8, 10, 12, and 21 hours) over a 22 hour incubation period. Biofilm growth was also followed in parallel cultures in the absence of Compound 4 (untreated controls). Biofilm growth was quantified in samples by staining with crystal violet and measuring OD600. […] See, Example 5 for details.
In this experiment, wells of a 96-well assay plate containing growth medium (0.5×TSB, 0.25% (w/v) glucose) were inoculated with S. aureus ATCC 35556 and incubated at 37° C. At selected times (0, 1, 2, 4, 6, 8, 10, 12, 21 hours) during the incubation period, Compound 4 was added to individual wells at a concentration of 4×MBIC. Biofilms were washed and stained with crystal violet (CV) to measure biofilm growth after the entire assay plate (all cultures) had been incubated for a total of 22 hours. Biofilm growth in the absence of Compound 4 was followed in parallel cultures (untreated control cultures). Samples were taken from untreated cultures at the same times as Compound 4 was added to the inhibition cultures to quantify the level of biofilm growth by the CV staining method. […]

S. aureus ATCC 35556 [2] = assay: Planktonic growth curve assay; assay type: cell-based, Staphylococcus aureus; conditions: aerobic planktonic cultures; concentrations up to 8×MBIC; data not shown
Procedure: However, the specificity of these compounds for inhibiting biofilm growth was verified using an alternative growth curve assay. Planktonic cultures of S. aureus ATCC 35556 were grown aerobically in the presence of various concentrations of Compound 4 (MBIC=3.125 μM). Bacterial cell growth was monitored over time by measuring OD600.

CCOc1cc(/C=C2\SC(=S)N(c3ccc(F)cc3)C2=O)ccc1O [Compound 4, 3-(4-fluorophenyl)-5-(3-ethoxy-4-hydroxybenzylidene)-2-thioxothiazolidin-4-one]
inhibition of biofilm formation, early stages (S. aureus ATCC 35556 [1]; Compound added at 4×MBIC at early stages (up to 2 h)): inhibited | inhibition of biofilm formation, maturing biofilms (S. aureus ATCC 35556 [1]; Compound added at 4×MBIC to maturing biofilms (8-16 h)): resistant | effect on planktonic bacterial cell growth (OD600 over time) (S. aureus ATCC 35556 [2]): did not affect
